The source made the active and inactive calls. The rule behind the calls is not given here.
Experiments:
TA3 [1] = test: Antitumor activity against mouse TA3 cells assessed as growth inhibition at 10^-4 M; format: functional, cell-based
TA3 [2] = test: Induction of growth in mouse TA3 cell at 10^-4 M; format: functional, cell-based
TA3 [3] = test: Antitumor activity against mouse TA3 cells assessed as growth inhibition; format: functional

| SMILES | growth inhibition (GI) (TA3 [1]) | Activity (TA3 [2]) | ID50 (TA3 [3]) |
| --- | --- | --- | --- |
| CC(=O)N1C(c2ccc(C)cc2)SC(C)(C)C1C(=O)O (centres undefined) | inactive |  |  |
| Cc1ccc([C@@H]2N[C@H](C(=O)O)CS2)cc1 |  | Active |  |
| Cc1ccc([C@H]2SC[C@@H](C(=O)O)N2C(=O)C(F)(F)F)cc1 |  | inactive |  |
| Cc1ccc(C2NC(C(=O)O)C(C)(C)S2)cc1 (centres undefined) | inactive |  |  |
| CC(=O)N1[C@@H](c2ccc(C)cc2)SC[C@H]1C(=O)O | inactive | inactive |  |
| CC(=O)N1[C@@H](c2ccc(C)cc2)SC[C@H]1C(=O)CCl |  |  | 3.2 ×10⁻⁵ M |
| CC(=O)N1[C@@H](c2ccc(C)cc2)SC[C@H]1C(=O)C=[N+]=[N-] | inactive |  |  |
| N[C@@H](CSC(c1ccccc1)(c1ccccc1)c1ccccc1)C(=O)O [S-TRITYL-L-CYSTEINE] |  |  | 6.3 ×10⁻⁷ M |

Source: ChEMBL document CHEMBL3272015, “Cysteine derivatives with reactive groups as potential antitumor agents” (1976)
